# From PMC10057893, “Synthesis and Biological Evaluation of New Schiff Bases Derived from 4-Amino-5-(3-fluorophenyl)-1,2,4-triazole-3-thione” (Molecules, 2023)
# pIC50: −log10 of the molar value. Read-outs that look alike come from different tables or passages of the source.
# What was measured:
# PC3 = test: MTT cell viability assay; format: cell-based, human; conditions: Homo sapiens, PC-3, PC3, MTT, read-out: Cytotoxic activity IC50; for pIC50: 72 h (table footnote); for IC50: same value in µg/mL
# Experimental: (§1) All the cell lines were purchased from the American Type Culture Collection (ATCC, Rockville, MD, USA) and cultured in strictly defined conditions according to the recommended ATCC protocol. The PC3 cells were cultured in RPMI 1640 (Roswell Park Memorial Institute, Biowest SAS, Nuaillé, France), while the MDA-MB-231 and HaCaT cells were maintained in DMEM (Dulbecco’s Modified Eagle’s Medium, Biowest SAS, Nuaillé, France) supplemented with 1% streptomycin and penicillin and in 10% heat-inactivated fetal bovine serum (FBS, Gibco BRL San Francisco, CA, USA) with 1% streptomycin and penicillin. The cells were incubated in a 37 °C/5% CO2 humidified incubator. They were cultured until 80–90% confluence was achieved. Then, they were harvested by treatment with 0.25% trypsin-0.02% EDTA (Gibco BRL, San Francisco, CA, USA) and used in the experiments. Untreated cells were used as a control. […] After 24 h of incubation, the culture medium was replaced with a fresh medium. […] Then, the medium was aspirated and formed formazan crystals were solubilized by adding isopropanol-DMSO mixture (1:1 vol). The intensity of the dissolved crystals was measured using a UVM 340 reader (ASYS Hitech GmbH, Eugendorf, Austria) at a wavelength of 570 nm. Cell viability was estimated by the percentage of MTT reduction in cells to which the tested compounds were added, compared to the control sample, where only the medium was added. The experiments were repeated three times. The IC50 was calculated using GraphPad Prism 9.0.0 (GraphPad Software).
# MDA-MB-231 = test: MTT cell viability assay; format: cell-based, human; conditions: Homo sapiens, MDA-MB-231, MTT, read-out: Cytotoxic activity IC50; for pIC50: 72 h (table footnote); for IC50: same value in µg/mL
# Experimental: as §1
# [1] = tested on: Candida krusei ATCC 14243; test: Broth microdilution MIC/MFC, antifungal; format: cell-based; conditions: Pichia kudriavzevii, ATCC14243
# Experimental: (§2) To determine the antifungal activity of the newly synthesized Schiff bases against the reference strains of Candida spp., the broth microdilution method was used according to the EUCAST [52] and Clinical and Laboratory Standards Institute (CLSI) guidelines with some modifications to the medium. Before in vitro antifungal activity detection, the basic concentration of 1000 µg/mL of each compound was prepared with Mueller–Hinton broth (BioMaxima, Lublin, Poland) supplemented with 2% glucose (MHB+2% glucose). […] The final concentrations of the Schiff bases ranged from […] to 1000 µg/mL. All the reference strains of Candida spp. used were first subcultured to the Mueller–Hinton agar medium (BioMaxima, Lublin, Poland) with 2% glucose (MHA +2% glucose) at 37 °C for 24 h. Next, 2 µL of appropriate fungal suspensions was added to each well containing 100 µL of MHB + 2% glucose and the various concentrations of the tested Schiff bases.
# (§3) After incubation, 5 μL of the broth media cultured with bacteria or fungi were removed from each well of the plates used in the MIC experiments. Next, they were culturd onto the surface of the MHA medium (BioMaxima, Lublin, Poland) plate for bacteria or MHA +2% glucose plate for yeasts. The inoculated plates were incubated in the conditions mentioned above. After incubation, a visual reading of MBC or MFC values was made. […] Three replicates for each strain and compound were performed.
# [2] = tested on: Candida tropicalis ATCC 1369; test: Broth microdilution MIC/MFC, antifungal; format: cell-based; conditions: ATCC1369
# Experimental: as §2, §3
# Candida auris CDC B11903 = test: Broth microdilution MIC/MFC, antifungal; format: cell-based; conditions: Candidozyma auris, CDCB11903
# Experimental: as §2, §3
# [3] = tested on: Candida albicans ATCC 10231; test: Broth microdilution MIC/MFC, antifungal; format: cell-based; conditions: for MIC: ATCC10231; for MFC: ATCC10231, read-out: MFC
# Experimental: as §2, §3
# [4] = tested on: Candida lusitaniae ATCC 3449; test: Broth microdilution MIC/MFC, antifungal; format: cell-based; conditions: Clavispora lusitaniae, ATCC3449
# Experimental: as §2, §3
# [5] = tested on: Candida glabrata ATCC 15126; test: Broth microdilution MIC/MFC, antifungal; format: cell-based; conditions: Nakaseomyces glabratus, ATCC15126
# Experimental: as §2, §3
# [6] = tested on: Candida glabrata ATCC 90030; test: Broth microdilution MIC/MFC, antifungal; format: cell-based; conditions: Nakaseomyces glabratus, ATCC90030
# Experimental: as §2, §3
# [7] = tested on: Escherichia coli ATCC 25922; test: Broth microdilution MIC/MBC, antibacterial; format: cell-based; conditions: ATCC25922, Escherichia coli ATCC 25922
# Experimental: (§4) The minimal inhibitory concentration (MIC) was determined with the microdilution technique using 96-well polystyrene microplates (Medlab, Poland), as indicated by the European Committee on Antimicrobial Susceptibility Testing (EUCAST) guidelines. In this process, stock solutions of each tested Schiff base dissolved in dimethylsulphoxide (DMSO, Stanlab, Poland) were used at a concentration of 50 mg/mL. Before in vitro antibacterial activity detection, the basic concentration of 1000 µg/mL of each compound was prepared with Mueller–Hinton broth medium (MHB, BioMaxima, Lublin, Poland). The experiment was prepared using Mueller–Hinton broth medium in 96-well microplates. A series of two-fold dilutions of the tested compounds in the concentration range from 0.49 to 1000 μg/mL was made in culture broth medium. Then, 2 μL of bacterial inoculum with a density of 0.5 McFarland standard was added to each well. Each well was filled with a total volume of 100 μL. Then, the microtiter plates were incubated for 18 ± 2 h at 35 °C. After the incubation, the results were spectrophotometrically determined in Biotek ELx800 (Biokom, Janki, Poland) at 600 nm (OD600). The lowest concentration of the tested compounds with the absence of bacterial growth was determined as an MIC. Three replicates for each strain and compound were performed.
# as §3
# [8] = tested on: Micrococcus luteus ATCC 10240; test: Broth microdilution MIC/MBC, antibacterial; format: cell-based; conditions: ATCC10240
# Experimental: as §4, §3
# [9] = tested on: Pseudomonas aeruginosa ATCC 27853; test: Broth microdilution MIC/MBC, antibacterial; format: cell-based; conditions: ATCC27853
# Experimental: as §4, §3
# [10] = tested on: Staphylococcus aureus ATCC 6538; test: Broth microdilution MIC/MBC, antibacterial; format: cell-based; conditions: ATCC6538
# Experimental: as §4, §3
# [11] = tested on: Staphylococcus epidermidis ATCC 12228; test: Broth microdilution MIC/MBC, antibacterial; format: cell-based; conditions: ATCC12228
# Experimental: as §4, §3
# [12] = tested on: Bacillus subtilis ATCC 6633; test: Broth microdilution MIC/MBC, antibacterial; format: cell-based; conditions: ATCC6633
# Experimental: as §4, §3
# [13] = tested on: Klebsiella pneumoniae ATCC 13883; test: Broth microdilution MIC/MBC, antibacterial; format: cell-based; conditions: ATCC13883, Klebsiella pneumoniae ATCC 13883
# Experimental: as §4, §3
# MTT cell viability assay = format: cell-based; conditions: human, HaCaT cells (immortal keratinocytes), HaCaT normal cell line, read-out: Cytotoxic activity IC50 (converted)
# Experimental: as §1
melting point [°C],MIC [1] [µg/mL],MIC [2] [µg/mL],MIC (Candida auris CDC B11903) [µg/mL],MIC [3] [µg/mL],MIC [4] [µg/mL],MIC [5] [µg/mL],MIC [6] [µg/mL],MIC [7] [µg/mL],MIC [8] [µg/mL],MIC [9] [µg/mL],MIC [10] [µg/mL],MIC [11] [µg/mL],MIC [12] [µg/mL],MIC [13] [µg/mL],Compound,pIC50 (PC3),IC50 (PC3) [µg/mL],pIC50 (MDA-MB-231),IC50 (MDA-MB-231) [µg/mL],IC50 at 72 h (MTT cell viability assay; 72 h (table footnote)) [µM],other results
140 to 143,1000,500,500,125,500,> 1000,500,> 1000,> 1000,> 1000,> 1000,> 1000,> 1000,> 1000,"COc1ccccc1C=Nn1c(-c2cccc(F)c2)n[nH]c1=S [RO12, 5-(3-fluorophenyl)-4-[(2-methoxybenzylidene)amino]-2,4-dihydro-3H-1,2,4-triazole-3-thione]",< 4.00,> 38.8,< 4.00,> 38.8,98.1,MFC [2]: > 1000 µg/mL; MFC (Candida auris CDC B11903): > 1000 µg/mL; MFC [3]: > 1000 µg/mL; MFC [4]: > 1000 µg/mL; MFC [6]: > 1000 µg/mL; IC50 at 72 h (MTT cell viability assay; same value in µg/mL): 38.1 µg/mL
230 to 231,1000,500,1000,500,1000,1000,> 1000,> 1000,> 1000,> 1000,> 1000,> 1000,> 1000,> 1000,"O=[N+]([O-])c1ccc(C=Nn2c(-c3cccc(F)c3)n[nH]c2=S)cc1 [RO3, 5-(3-fluorophenyl)-4-[(4-nitrobenzylidene)amino]-2,4-dihydro-3H-1,2,4-triazole-3-thione]",< 4.00,> 34.3,< 4.00,> 34.3,> 100,IC50 at 72 h (MTT cell viability assay; same value in µg/mL): > 34.3 µg/mL
223 to 224,> 1000,500,1000,500,> 1000,500,500,> 1000,> 1000,> 1000,125,1000,> 1000,> 1000,"Cc1ccccc1C=Nn1c(-c2cccc(F)c2)n[nH]c1=S [RO10, 5-(3-fluorophenyl)-4-[(2-methylbenzylidene)amino]-2,4-dihydro-3H-1,2,4-triazole-3-thione]",< 4.00,> 31.2,< 4.00,> 31.2,> 100,MFC [2]: > 1000 µg/mL; MFC [3]: > 1000 µg/mL; MFC [5]: > 1000 µg/mL; MFC [6]: > 1000 µg/mL; MBC [10]: > 1000 µg/mL; IC50 at 72 h (MTT cell viability assay; same value in µg/mL): > 31.2 µg/mL
189 to 192,–,–,–,–,–,–,–,–,–,–,–,–,–,–,"CCCOc1ccc(/C=N/n2c(-c3cccc(F)c3)n[nH]c2=S)cc1 [RO6, 5-(3-fluorofenylo)-4-[(4-propoxybenzylidene)amino]-2,4-dihydro-3H-1,2,4-triazole-3-thione]",–,–,–,–,–,–
